ChEMBL document CHEMBL1152129, “Quantitative structure-activity relationship and complex network approach to monoamine oxidase A and B inhibitors” (J Med Chem, 2008)

Columns and labels:
[1] = molecular target: T1, Amine oxidase [flavin-containing] B (Homo sapiens, UniProt P27338); assay: Inhibition of human recombinant MAOB at 100 uM by fluorimetric method
T1 sequence (P27338 whole entry): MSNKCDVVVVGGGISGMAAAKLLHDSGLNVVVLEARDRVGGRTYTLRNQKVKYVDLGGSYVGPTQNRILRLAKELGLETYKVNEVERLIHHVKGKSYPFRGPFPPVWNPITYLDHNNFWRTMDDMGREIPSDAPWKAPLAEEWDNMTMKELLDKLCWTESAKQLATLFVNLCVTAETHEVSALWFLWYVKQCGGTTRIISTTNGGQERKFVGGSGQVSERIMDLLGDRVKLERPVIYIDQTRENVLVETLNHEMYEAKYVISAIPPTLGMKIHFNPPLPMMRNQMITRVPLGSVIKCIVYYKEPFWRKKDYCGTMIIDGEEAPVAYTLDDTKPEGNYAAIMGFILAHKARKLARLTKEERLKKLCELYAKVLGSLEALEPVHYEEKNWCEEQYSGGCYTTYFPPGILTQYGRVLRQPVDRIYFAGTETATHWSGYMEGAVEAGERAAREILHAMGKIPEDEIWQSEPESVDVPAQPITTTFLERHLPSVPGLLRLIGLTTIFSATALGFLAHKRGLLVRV

[2] = molecular target: T1, Amine oxidase [flavin-containing] B; assay: Inhibition of human liver MAOB
[3] = molecular target: T2, Amine oxidase [flavin-containing] A (Homo sapiens, UniProt P21397); assay: Inhibition of human recombinant MAOA by fluorimetric method; conditions: for Activity: human
T2 sequence (P21397 whole entry): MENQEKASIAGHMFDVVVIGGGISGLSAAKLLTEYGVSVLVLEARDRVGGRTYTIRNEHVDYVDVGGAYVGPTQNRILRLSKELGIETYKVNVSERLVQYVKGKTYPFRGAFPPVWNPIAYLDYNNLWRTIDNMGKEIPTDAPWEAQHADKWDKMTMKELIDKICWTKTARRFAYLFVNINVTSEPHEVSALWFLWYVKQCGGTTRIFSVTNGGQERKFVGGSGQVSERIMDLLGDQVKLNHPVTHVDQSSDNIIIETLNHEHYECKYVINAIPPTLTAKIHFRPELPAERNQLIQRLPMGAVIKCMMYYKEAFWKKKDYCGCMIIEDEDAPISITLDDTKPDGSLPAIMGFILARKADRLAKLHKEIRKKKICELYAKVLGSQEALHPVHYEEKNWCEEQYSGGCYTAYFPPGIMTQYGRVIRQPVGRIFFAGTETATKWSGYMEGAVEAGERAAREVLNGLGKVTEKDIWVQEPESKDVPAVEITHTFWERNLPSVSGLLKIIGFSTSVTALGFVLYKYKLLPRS

[4] = molecular target: T2, Amine oxidase [flavin-containing] A; assay: Inhibition of human liver MAOA

| Compound | Activity [3] | Activity [4] | other results |
| --- | --- | --- | --- |
| O=c1[nH]c(=O)n([C@H]2C[C@H](O)[C@@H](CO)O2)cc1F [FLOXURIDINE] | – | – | Activity [1]: Not Active; Activity [2]: Not Active |
| CC1(C)O[C@@H]2C[C@H]3[C@@H]4C[C@H](F)C5=CC(=O)C=C[C@]5(C)[C@@]4(Cl)[C@@H](Cl)C[C@]3(C)[C@]2(C(=O)CO)O1 [FLUCLORONIDE] | – | – | Activity [1]: Not Active; Activity [2]: Not Active |
| COc1cccc2c1C(=O)c1c(O)c3c(c(O)c1C2=O)C[C@@](O)(C(=O)CO)C[C@@H]3O[C@H]1C[C@H](N)[C@H](O)[C@H](C)O1 [DOXORUBICIN] | Not Active | – | – |
| COc1cc2c(cc1O)N=C[C@@H]1CC[C@H](O)N1C2=O [NEOTHRAMYCIN A] | – | Not Active | – |
| N[C@@H]1C[C@H]1c1ccccc1.N[C@H]1C[C@@H]1c1ccccc1 (racemic) [TRANYLCYPROMINE] | – | Not Active | Activity [2]: Not Active |
| O=[N+]([O-])c1ccc(/C=N/n2cnnc2)o1 [FURAZONAL] | – | – | Activity [1]: Not Active; Activity [2]: Not Active |
| CCC1(c2ccccc2)C(=O)NCNC1=O [PRIMIDONE] | Not Active | – | – |
| CC[C@H](C)[C@@H]1NC(=O)[C@H](Cc2ccc(O)cc2)NC(=O)[C@@H](N)CSSC[C@@H](C(=O)N2CCC[C@H]2C(=O)N[C@@H](CC(C)C)C(=O)NCC(N)=O)NC(=O)[C@H](CC(N)=O)NC(=O)[C@H](CCC(N)=O)NC1=O [OXYTOCIN] | – | Not Active | – |
| CC(C)Cc1ccc(C(C)C(=O)O)cc1 (stereo not drawn) [IBUPROFEN] | Not Active | – | – |
| CCc1nc(N)nc(N)c1-c1ccc(Cl)c(Cl)c1 [ETOPRINE] | Not Active | – | – |
| CCOC(N)=O | – | Not Active | Activity [2]: Not Active |
| CCOc1ccc(NC(C)=O)cc1.Cl [PHENACETIN CHLORIDE] | – | Not Active | – |
| CC(=O)OCC(=O)[C@@]12N=C(C)O[C@@H]1C[C@H]1[C@@H]3CCC4=CC(=O)C=C[C@]4(C)[C@H]3[C@@H](O)C[C@@]12C [DEFLAZACORT] | – | Not Active | Activity [2]: Not Active |
| CCC1(C)CC(=O)NC1=O (stereo not drawn) [ETHOSUXIMIDE] | – | – | Activity [1]: Not Active |
| COc1cc(NC(C)CCCN)c2ncccc2c1 (stereo not drawn) [PRIMAQUINE] | Not Active | – | – |
| Cc1noc(NS(=O)(=O)c2ccc(N)cc2)c1C [SULFISOXAZOLE] | Not Active | – | – |
| O[C@@H]([C@H](O)[C@H](O)CBr)[C@H](O)CBr [MITOBRONITOL] | Not Active | – | – |
| CCOC(=O)OC(C)OC(=O)[C@@H]1N2C(=O)[C@@H](NC(=O)[C@H](N)c3ccccc3)[C@H]2SC1(C)C (stereo partly drawn) [BACAMPICILLIN] | – | Not Active | Activity [2]: Not Active |
| Nc1nc(=O)c2nc(CNc3ccc(C(=O)NC(CCC(=O)NC(CCC(=O)NC(CCC(=O)O)C(=O)O)C(=O)O)C(=O)O)cc3)cnc2[nH]1 (stereo not drawn) [PTEROPTERIN] | – | Not Active | – |
| CC(=O)OC1C=CC(=O)OC1C1OC1C (stereo not drawn) [ASPERLIN] | Not Active | – | – |
| N#CC(O[C@@H]1O[C@H](CO[C@@H]2O[C@H](CO)[C@@H](O)[C@H](O)[C@H]2O)[C@@H](O)[C@H](O)[C@H]1O)c1ccccc1 (stereo partly drawn) [VITAMIN B17] | Not Active | – | – |
| OC[C@@H](O)[C@@H](O)[C@H](O)[C@H](O)CO [MANNITOL] | Not Active | – | – |

| Compound | Activity [3] | Activity [4] | other results |
| --- | --- | --- | --- |
| CCCCCCCCCCCCCCCC(=O)N(CCCCN(C)C)CCCCN(C)C [SOLAPALMITINE] | Not Active | – | – |
| Cn1cc(I)ccc1=O | – | Not Active | – |
| NC(=O)NO [HYDROXYUREA] | Not Active | – | – |
| CC(=O)Nc1ccc(/C=N/NC(N)=S)cc1 [AMITHIOZONE] | Not Active | – | – |
| CCOC(=O)[C@H](Cc1ccc(O)cc1)NC(=O)[C@H](Cc1ccc(N(CCCl)CCCl)cc1)NC(C)=O [ASDOPHAN] | Not Active | – | – |
| [H]/N=C(/N)NS(=O)(=O)c1ccc(N)cc1 [SULFAGUANIDINE] | – | Not Active | – |
| C=CC1=C(C(=O)O)N2C(=O)[C@@H](NC(=O)/C(=N\OCC(=O)O)c3csc(N)n3)[C@H]2SC1 [CEFIXIME] | Not Active | – | – |
| OC[C@H]1O[C@@H](n2cnc3c(S)ncnc32)[C@H](O)[C@@H]1O [THIOINOSINE] | Not Active | – | – |
| CO[C@@]12[C@H](COC(N)=O)C3=C(C(=O)C(C)=C(N)C3=O)N1C[C@H]1[C@@H]2N1c1ccc(O)cc1 | Not Active | – | – |
| CC(/C=N/NC(=N)N)=N\NC(=N)N [MITOGUAZONE] | Not Active | – | – |
| CCOC(=O)/C=C1\SC(N2CCCCC2)C(=O)N1C (stereo not drawn) [ETOZOLIN] | Not Active | – | – |
| CC1=C(/C=C/C(C)=C/C=C/C(C)=C/CO)C(C)(C)CCC1 [RETINOL] | Not Active | – | – |
| Nc1ccc(S(=O)(=O)Nc2ncccn2)cc1 [SULFADIAZINE] | – | Not Active | – |
| COCCOC(=O)C1=C(C)NC(C)=C(C(=O)OC(C)C)C1c1cccc([N+](=O)[O-])c1 (stereo not drawn) [NIMODIPINE] | Not Active | – | – |
| C=CCC(C(=O)NC(N)=O)C(C)C (stereo not drawn) [APRONAL] | – | Not Active | – |
| CC(CCc1ccccc1)NCC(O)c1ccc(O)c(C(N)=O)c1 (stereo not drawn) [LABETALOL] | Not Active | – | – |
| CCCCNc1ccc(C(=O)OCCN(C)C)cc1 [TETRACAINE] | – | Not Active | Activity [2]: Not Active |
| CN(C)[C@@H]1C(O)=C(C(N)=O)C(=O)[C@@]2(O)C(O)=C3C(=O)c4c(O)cccc4[C@@](C)(O)[C@H]3[C@H](O)[C@@H]12 [OXYTETRACYCLINE] | – | Not Active | – |
| CCCCC1=C2N=C(N)N[C@H]3CC[C@@H](C[C@@H]1C)[C@@H]23 [PTILOCAULINE] | – | Not Active | – |
| Cc1cc(Cl)ccc1OCC(=O)O [METAXON] | Not Active | – | – |
| CN1C(CSCC(F)(F)F)Nc2cc(Cl)c(S(N)(=O)=O)cc2S1(=O)=O (stereo not drawn) [POLYTHIAZIDE] | – | Not Active | – |
| Clc1sc(Cl)c(Cl)c1Cl [TETRACHLOROTHIOPHENE] | – | Not Active | Activity [2]: Not Active |

| Compound | Activity [3] | Activity [4] | other results |
| --- | --- | --- | --- |
| COc1ccc(Cl)cc1C(=O)NCCc1ccc(S(=O)(=O)NC(=O)NC2CCCCC2)cc1 [GLYBURIDE] | Not Active | – | – |
| Cc1ccc(S(=O)(=O)NC(=O)N[C@H]2[C@H]3CC[C@@](C)([C@H]2O)C3(C)C)cc1 [GLIBORNURIDE] | Not Active | – | – |
| CC(=O)Nc1nnc(S(N)(=O)=O)s1 [ACETAZOLAMIDE] | – | Not Active | Activity [2]: Not Active |
| COC1=C(C)C(=O)C2=C(C1=O)[C@@H](CO)N1[C@H]3[C@H]4[C@@H](C[C@H]([C@H]1C#N)N4C)[C@@H]1OCCN1[C@@H]23 [CYANOCYCLINE A] | Not Active | – | – |
| C[C@H]1CC2=CC(=O)CC[C@]2(C)[C@H]2CC[C@@]3(C)[C@@H](CC[C@]3(C)O)[C@H]12 [CALUSTERONE] | Not Active | – | – |
| O=c1[nH]nc(-c2ccncc2)o1 [NEOVADRINE] | – | Not Active | – |
| O=C(O)c1ccc(NC2OC[C@@H](O)[C@H](O)[C@H]2O)cc1 (stereo partly drawn) [BENAXIBINE] | Not Active | – | – |
| CNCCc1ccc(OC(=O)C(C)C)c(OC(=O)C(C)C)c1 [IBOPAMINE] | Not Active | – | – |
| C[C@@H]1C[C@@H]([C@H](O)CC2CC(=O)NC(=O)C2)C(=O)[C@@H](C)C1 [CYCLOHEXIMIDE] | Not Active | – | – |
| O=C(NP(=O)(N1CC1)N1CC1)c1ccc(F)cc1 [FLUORBENZOTEF] | Not Active | – | – |
| CC(c1cnc2nc(N)nc(N)c2n1)N(C)c1ccc(C(=O)N[C@@H](CCC(=O)O)C(=O)O)cc1 (stereo partly drawn) [ADENOPTERIN] | Not Active | – | – |
| O=C(O)CCCCSc1[nH]cnc2ncnc1-2 [BUTHIOPURINE] | – | Not Active | – |
| COc1c(O)ccc2c(C)cc(=O)oc12 | – | – | IC50 [3]: 80.3 µM; Activity [1]: Not Active |
| CCC1(c2ccccc2)C(=O)NC(=O)NC1=O [PHENOBARBITAL] | Not Active | – | – |
| O=NN(CCCl)C(=O)NCCO [ELMUSTINE] | Not Active | – | – |
| C=CC(=O)NCNC(=O)CCBr [BROMACRYLIDE] | Not Active | – | – |
| OC1CCCCC1N1CCC(c2ccccc2)CC1 (stereo not drawn) | – | Not Active | Activity [2]: Not Active |
| C[C@H](N)C(=O)N[C@@H]1[C@H]2C(=C(O)C[C@@H](O)[C@@H]2O)C(=O)O[C@]1(C)C(Cl)Cl [BACTOBOLIN] | – | Not Active | Activity [2]: Not Active |
| O=C1c2ccccc2C(=O)c2c(NCCNCCO)ccc(NCCNCCO)c21 [AMETANTRONE] | – | Not Active | Activity [2]: Not Active |
| Cc1nnc(SCC2=C(C(=O)O)N3C(=O)[C@@H](NC(=O)Cn4cnnn4)[C@H]3SC2)s1 [CEFAZOLIN] | Not Active | – | – |
